Results reported in patent US20210267973A1, “COMBINATION OF A TYPE II PROTEIN ARGININE […] INHIBITOR AND AN ICOS BINDING PROTEIN TO TREAT CANCER” (GLAXOSMITHKLINE INTELLECTUAL PROPERTY DEVELOPMENT LIMITED, priority 2018, published 2021).

What was measured:
[1] = tested on: cellular splicing in lymphoma cell lines; test: RNA-sequencing splicing analysis in lymphoma cell lines; assay type: cell-based
Procedure: A. Mechanisms of regulation of cellular splicing (adapted from Bezzi M. et al.). B. Analysis of intron expression in lymphoma lines treated with 0.1 or 0.5 μM Compound B.
A. Quantification of isoform switches in 4 lymphoma cell lines treated with Compound B (0.1 and 0.5 μM) for 2 and 4 days. B. Overlap of isoform switches in 4 lymphoma lines. C. List of genes that undergo alternative splicing in all 4 lymphoma lines (overlap of 4 cell lines).
PRMT5 methylates histones and proteins involved in RNA processing and therefore PRMT5 inhibition is expected to have a profound effect on cellular mRNA homeostasis. To further decipher cellular mechanisms that are regulated by PRMT5 and contribute to the cellular response to PRMT5 inhibitors, global gene expression changes were evaluated in lymphoma models sensitive to PRMT5 inhibition. To elucidate gene expression changes that occur in lymphoma cell lines upon PRMT5 inhibitor treatment, 4 sensitive lymphoma lines (2 MCL lines-Z138 and Granta-519 and 2 DLBCL lines-DOHH2 and RL) were profiled by RNA-sequencing.
Since PRMT5 methylates spliceosome subunits and PRMT5 inhibition attenuates arginine methylation of a number of proteins involved in splicing, the effect of PRMT5 inhibin on cellular splicing was studied. The changes in RNA splicing were assessed in the lymphoma RNA-seq dataset described above. […]

[2] = tested on: SDMA, MDM4 splicing, p53 in GBM and lymphoma cell lines; test: SDMA, MDM4 splicing and p53 in GBM and lymphoma cell lines; assay type: cell-based; details: 1 μM
Procedure: Next, effects on cellular methylation and the p53 pathway were evaluated in GBM cells treated with a PRMT5 inhibitor by measuring SDMA, p53 and p21 protein levels and MDM4 splicing (FIG. 27). […] Alternative MDM4 splicing was detected in all cell lines but SF539 which are p53 mutant and have low basal expression of the long MDM4 isoform (FIG. 27, panel A). p53 levels increased in all cell lines, while the induction of p21 protein was observed only in cell lines that have wild-type p53 (Z138 (MCL), U87-MG and A172 (GBM)). […] The role of p53 in the response of GBM cell lines to PRMT5 inhibition will be further tested in future studies. Additionally, the effects of PRMT5 inhibition on cell cycle and neural differentiation in GBM models are being explored.

[3] = tested on: 19 enzymes on the methyltransferase selectivity panel (Type I and Type II PRMTs and lysine methyltransferases); test: methyltransferase selectivity panel; assay type: biochemical; details: PRMT5 tool compounds
From the text: FIG. 6: Phylogenetic tree highlighting the methyltransferases tested in the selectivity panel. […] PRMT9 is shown for relationship purposes only within the family tree and was not evaluated in the panel. Figure adapted from Richon V M. et al.
PRMT9/FBXO11, which is the other Type II PRMT and the only PRMT to lack the THW loop, was not included due to the lack of a functional enzyme assay.

[4] = tested on: SKBR3, MDA-MB-468, MCF-7, ZR-75-1 and Z-138 cells; test: longer-term growth/death assay in breast and MCL cell lines; assay type: cell-based; details: SKBR3, MDA-MB-468 and MCF-7 cells, 7-10 days
MCL cell lines = test: 6-day growth/death assay in a panel of MCL lines; assay type: cell-based; details: Mino, Jeko-1
From the text: FIG. 18: Activity of PRMT5 inhibitor and ibrutinib as single agents and in combination in MCL cell lines. […] C.
• The strongest mechanistic link currently described between PRMT5 and cancer is in MCL. PRMT5 is frequently overexpressed in MCL and is highly expressed in the nuclear compartment where it increases levels of histone methylation and silences a subset of tumor suppressor genes. Importantly, cyclin D1, the oncogene that is translocated in the vast majority of MCL patients, associates with PRMT5 and through a cdk4-dependent mechanism increases PRMT5 activity. PRMT5 mediates the suppression of key genes that negatively regulate DNA replication allowing for cyclin D1-dependent neoplastic growth. PRMT5 knockdown inhibits cyclin D1-dependent cell transformation causing death of tumor cells.

[5] = tested on: panel of cancer cell lines; assay type: cell-based; details: most sensitive lymphoma lines (MCL and DLBCL)
From the text: (§1) DLBCL-diffuse large B-cell lymphoma, GBM-glioblastoma, MCL-mantle cell lymphoma, […]
as §1
The cell lines were selected to represent tumor types where PRMT5 activity has been reported to regulate key pathways and/or cell growth and survival (such as lymphoma and MCL, glioma, breast and lung cancer lines).

Z-138 MCL xenograft = test: 21-day efficacy study in Z-138 MCL xenograft model; assay type: in vivo; details: all groups in all efficacy studies presented
Procedure: B. Quantified SDMA western data from tumors harvested at the end of the efficacy study (3 hours post last dose).

[6] = tested on: MDM4 splicing, SDMA, p53 and p21 in MCL lines; test: MDM4 splicing (RT-PCR) and SDMA/p53/p21 Western in MCL lines; assay type: cell-based; details: Z138 cells
Procedure: To understand whether p53 activation is associated with MDM4 isoform switching, MDM4 alternative splicing was analyzed. […] The role of the p53 pathway in the biology of the response of p53 wild-type MCL cells to PRMT5 inhibition is being evaluated.

[7] = tested on: xenograft models of mantle cell lymphoma; test: xenograft models of mantle cell lymphoma (summary statement); assay type: in vivo
From the text: […] • The strongest mechanistic link currently described between PRMT5 and cancer is in MCL. PRMT5 is frequently overexpressed in MCL and is highly expressed in the nuclear compartment where it increases levels of histone methylation and silences a subset of tumor suppressor genes. […] The vast majority of SDMA containing proteins were factors that are involved in cellular splicing and RNA processing (SmB, Lsm4, hnRNPH1 and others), transcription (FUBP1) and translation highlighting the role of PRMT5 as an important regulator of cellular RNA homeostasis.

MDA-MB-468 xenograft = test: MDA-MB-468 triple negative breast cancer xenograft model; assay type: in vivo; details: 100 mg/kg BID
Procedure: Next, the efficacy of PRMT5 inhibition was evaluated in in vivo models of breast cancer.

## O=C(NC[C@H](O)CN1CCc2ccccc2C1)c1ccnc(NC2CCC2)c1 [Compound B]
[1]; 0.1 and 0.5 μM, 2 and 4 days, 4 lymphoma cell lines
  isoform switching: induces isoform switching for a subset of genes
[1]; 0.1 or 0.5 μM, lymphoma cell lines
  intron splicing: attenuates the splicing of a subset of introns
[2]
  MDM4 splicing: induces alternative splicing of MDM4
  SDMA levels: decreases SDMA levels
  p53 activation: activates p53
[3]
  selectivity for PRMT5/MEP50 over the other methyltransferases: Selectivity for PRMT5/MEP50 over the other methyltransferases was also observed
[4]
  nature of response upon prolonged exposure: cytotoxic response

## CC(=O)N1CCC(Nc2cc(C(=O)NC[C@H](O)CN3CCc4ccccc4C3)ncn2)CC1 [Compound C]
MCL cell lines
  sensitivity in 6-day growth/death assay: only moderately sensitive
[5]
  gIC50: single digit
[4]
  nature of response upon prolonged exposure: cytotoxic response
Z-138 MCL xenograft
  body weight: no body weight loss
[6]; 200 nM
  p53 and p21 expression: increased
[7]
  tumor growth inhibition (TGI): ~100%
MDA-MB-468 xenograft
  Maximal tumor growth inhibition (TGI): 83%

## O=C(NC[C@H](O)CN1CCc2ccccc2C1)c1cc(NC2COC2)ncn1 [Compound E]
[3]
  selectivity for PRMT5/MEP50 over the other methyltransferases: Selectivity for PRMT5/MEP50 over the other methyltransferases was also observed

## CC(=O)N1CCC(Nc2cc(C(=O)NC[C@H](O)CN3CCc4ccccc4C3)ccn2)CC1 [Compound F]
[3]
  selectivity for PRMT5/MEP50 over the other methyltransferases: Selectivity for PRMT5/MEP50 over the other methyltransferases was also observed

## COc1ccc(C2=N[C@@H](c3ccc(Cl)cc3)[C@@H](c3ccc(Cl)cc3)N2C(=O)N2CCNC(=O)C2)c(OC(C)C)c1 [Nutlin-3, reference compound]
[6]; 5 μM
  p53 and p21 expression: increased
